Test results published in paper PMC12310023 (PLOS Neglected Tropical Diseases, 2025).

Test system: NLuc-expressing C. parvum
Experiment: NLuc C. parvum IFNγ-KO mouse infection model, oocyst shedding
Type: in vivo

## CC(C)(CO)Cn1nc(-c2ccc3cc(OC4CC4)ccc3c2)c(C(N)=O)c1N [compound 1708]
15 mg/kg x 3 days, group I, day 6 p.i., Cp Mouse Efficacy 2
  RLU standardized by fecal weight: 251957 RLU
15 mg/kg x 3 days, group I, day 7 p.i., Cp Mouse Efficacy 2
  RLU standardized by fecal weight: 85920 RLU
15 mg/kg x 3 days, group I, day 8 p.i., Cp Mouse Efficacy 2
  RLU standardized by fecal weight: 79354 RLU
15 mg/kg x 3 days, group I, day 9 p.i., Cp Mouse Efficacy 2
  RLU standardized by fecal weight: 5065 RLU
15 mg/kg x 3 days, group I, day 10 p.i., Cp Mouse Efficacy 2
  RLU standardized by fecal weight: 1311 RLU
15 mg/kg x 3 days, group I, day 13 p.i., Cp Mouse Efficacy 2
  RLU standardized by fecal weight: 474 RLU
15 mg/kg x 3 days, group I, day 15 p.i., Cp Mouse Efficacy 2
  RLU standardized by fecal weight: 57 RLU
15 mg/kg x 3 days, group I, day 17 p.i., Cp Mouse Efficacy 2
  RLU standardized by fecal weight: 57 RLU
15 mg/kg x 3 days, group I, day 20 p.i., Cp Mouse Efficacy 2
  RLU standardized by fecal weight: 227 RLU
30 mg/kg QD x3, group G, Day 6, Cp Mouse Efficacy 1
  RLU Raw: 1295216 RLU
30 mg/kg QD x3, group G, Day 7, Cp Mouse Efficacy 1
  RLU Raw: 1222624 RLU
30 mg/kg QD x3, group G, Day 8, Cp Mouse Efficacy 1
  RLU Raw: 619376 RLU
30 mg/kg QD x3, group G, Day 9, Cp Mouse Efficacy 1
  RLU Raw: 66208 RLU
30 mg/kg QD x3, group G, Day 10, Cp Mouse Efficacy 1
  RLU Raw: 17152 RLU
30 mg/kg QD x3, group G, Day 13, Cp Mouse Efficacy 1
  RLU Raw: 2912 RLU
30 mg/kg QD x3, group G, Day 15, Cp Mouse Efficacy 1
  RLU Raw: 4896 RLU
30 mg/kg QD x3, group G, Day 17, Cp Mouse Efficacy 1
  RLU Raw: 1792 RLU
30 mg/kg QD x3, group G, Day 20, Cp Mouse Efficacy 1
  RLU Raw: 7008 RLU
30 mg/kg QD x3, group G, day 6 p.i., Cp Mouse Efficacy 1
  RLU standardized by fecal weight: 182425 RLU
30 mg/kg QD x3, group G, day 7 p.i., Cp Mouse Efficacy 1
  RLU standardized by fecal weight: 166343 RLU
30 mg/kg QD x3, group G, day 8 p.i., Cp Mouse Efficacy 1
  RLU standardized by fecal weight: 154844 RLU
30 mg/kg QD x3, group G, day 9 p.i., Cp Mouse Efficacy 1
  RLU standardized by fecal weight: 14087 RLU
30 mg/kg QD x3, group G, day 10 p.i., Cp Mouse Efficacy 1
  RLU standardized by fecal weight: 2907 RLU
30 mg/kg QD x3, group G, day 13 p.i., Cp Mouse Efficacy 1
  RLU standardized by fecal weight: 391 RLU
30 mg/kg QD x3, group G, day 15 p.i., Cp Mouse Efficacy 1
  RLU standardized by fecal weight: 401 RLU
30 mg/kg QD x3, group G, day 17 p.i., Cp Mouse Efficacy 1
  RLU standardized by fecal weight: 224 RLU
30 mg/kg QD x3, group G, day 20 p.i., Cp Mouse Efficacy 1
  RLU standardized by fecal weight: 904 RLU
30 mg/kg x 1 days, group F, Day 6, Cp Mouse Efficacy 2
  RLU Raw: 255712 RLU
30 mg/kg x 1 days, group F, Day 7, Cp Mouse Efficacy 2
  RLU Raw: 157696 RLU
30 mg/kg x 1 days, group F, Day 8, Cp Mouse Efficacy 2
  RLU Raw: 335600 RLU
30 mg/kg x 1 days, group F, Day 9, Cp Mouse Efficacy 2
  RLU Raw: 101760 RLU
30 mg/kg x 1 days, group F, Day 10, Cp Mouse Efficacy 2
  RLU Raw: 181040 RLU
30 mg/kg x 1 days, group F, Day 13, Cp Mouse Efficacy 2
  RLU Raw: 15056 RLU
30 mg/kg x 1 days, group F, Day 15, Cp Mouse Efficacy 2
  RLU Raw: 22080 RLU
30 mg/kg x 1 days, group F, Day 17, Cp Mouse Efficacy 2
  RLU Raw: 4144 RLU
30 mg/kg x 1 days, group F, Day 20, Cp Mouse Efficacy 2
  RLU Raw: 2768 RLU
30 mg/kg x 1 days, group F, day 6 p.i., Cp Mouse Efficacy 2
  RLU standardized by fecal weight: 39645 RLU
30 mg/kg x 1 days, group F, day 7 p.i., Cp Mouse Efficacy 2
  RLU standardized by fecal weight: 24640 RLU
30 mg/kg x 1 days, group F, day 8 p.i., Cp Mouse Efficacy 2
  RLU standardized by fecal weight: 55471 RLU
30 mg/kg x 1 days, group F, day 9 p.i., Cp Mouse Efficacy 2
  RLU standardized by fecal weight: 16820 RLU
30 mg/kg x 1 days, group F, day 10 p.i., Cp Mouse Efficacy 2
  RLU standardized by fecal weight: 20342 RLU
30 mg/kg x 1 days, group F, day 13 p.i., Cp Mouse Efficacy 2
  RLU standardized by fecal weight: 2841 RLU
30 mg/kg x 1 days, group F, day 15 p.i., Cp Mouse Efficacy 2
  RLU standardized by fecal weight: 3046 RLU
30 mg/kg x 1 days, group F, day 17 p.i., Cp Mouse Efficacy 2
  RLU standardized by fecal weight: 975 RLU
30 mg/kg x 1 days, group F, day 20 p.i., Cp Mouse Efficacy 2
  RLU standardized by fecal weight: 410 RLU
60 mg/kg QD x3, group F, Day 6, Cp Mouse Efficacy 1
  RLU Raw: 2614768 RLU
60 mg/kg QD x3, group F, Day 7, Cp Mouse Efficacy 1
  RLU Raw: 2391472 RLU
60 mg/kg QD x3, group F, Day 8, Cp Mouse Efficacy 1
  RLU Raw: 411984 RLU
60 mg/kg QD x3, group F, Day 9, Cp Mouse Efficacy 1
  RLU Raw: 18336 RLU
60 mg/kg QD x3, group F, Day 10, Cp Mouse Efficacy 1
  RLU Raw: 2272 RLU
60 mg/kg QD x3, group F, Day 13, Cp Mouse Efficacy 1
  RLU Raw: 576 RLU
60 mg/kg QD x3, group F, Day 15, Cp Mouse Efficacy 1
  RLU Raw: 304 RLU
60 mg/kg QD x3, group F, Day 17, Cp Mouse Efficacy 1
  RLU Raw: 144 RLU
60 mg/kg QD x3, group F, Day 20, Cp Mouse Efficacy 1
  RLU Raw: 224 RLU
60 mg/kg QD x3, group F, day 6 p.i., Cp Mouse Efficacy 1
  RLU standardized by fecal weight: 261477 RLU
60 mg/kg QD x3, group F, day 7 p.i., Cp Mouse Efficacy 1
  RLU standardized by fecal weight: 201812 RLU
60 mg/kg QD x3, group F, day 8 p.i., Cp Mouse Efficacy 1
  RLU standardized by fecal weight: 45026 RLU
60 mg/kg QD x3, group F, day 9 p.i., Cp Mouse Efficacy 1
  RLU standardized by fecal weight: 3245 RLU
60 mg/kg QD x3, group F, day 10 p.i., Cp Mouse Efficacy 1
  RLU standardized by fecal weight: 215 RLU
60 mg/kg QD x3, group F, day 13 p.i., Cp Mouse Efficacy 1
  RLU standardized by fecal weight: 93 RLU
60 mg/kg QD x3, group F, day 15 p.i., Cp Mouse Efficacy 1
  RLU standardized by fecal weight: 78 RLU
60 mg/kg QD x3, group F, day 17 p.i., Cp Mouse Efficacy 1
  RLU standardized by fecal weight: 33 RLU
60 mg/kg QD x3, group F, day 20 p.i., Cp Mouse Efficacy 1
  RLU standardized by fecal weight: 67 RLU
60 mg/kg x 1 day, group E, Day 6, Cp Mouse Efficacy 2
  RLU Raw: 814080 RLU
60 mg/kg x 1 day, group E, Day 7, Cp Mouse Efficacy 2
  RLU Raw: 339152 RLU
60 mg/kg x 1 day, group E, Day 8, Cp Mouse Efficacy 2
  RLU Raw: 54176 RLU
60 mg/kg x 1 day, group E, Day 9, Cp Mouse Efficacy 2
  RLU Raw: 52848 RLU
60 mg/kg x 1 day, group E, Day 10, Cp Mouse Efficacy 2
  RLU Raw: 91232 RLU
60 mg/kg x 1 day, group E, Day 13, Cp Mouse Efficacy 2
  RLU Raw: 5456 RLU
60 mg/kg x 1 day, group E, Day 15, Cp Mouse Efficacy 2
  RLU Raw: 4592 RLU
60 mg/kg x 1 day, group E, Day 17, Cp Mouse Efficacy 2
  RLU Raw: 5520 RLU
60 mg/kg x 1 day, group E, Day 20, Cp Mouse Efficacy 2
  RLU Raw: 2336 RLU
60 mg/kg x 1 day, group E, day 6 p.i., Cp Mouse Efficacy 2
  RLU standardized by fecal weight: 144085 RLU
60 mg/kg x 1 day, group E, day 7 p.i., Cp Mouse Efficacy 2
  RLU standardized by fecal weight: 44625 RLU
60 mg/kg x 1 day, group E, day 8 p.i., Cp Mouse Efficacy 2
  RLU standardized by fecal weight: 11405 RLU
60 mg/kg x 1 day, group E, day 9 p.i., Cp Mouse Efficacy 2
  RLU standardized by fecal weight: 12435 RLU
60 mg/kg x 1 day, group E, day 10 p.i., Cp Mouse Efficacy 2
  RLU standardized by fecal weight: 12329 RLU
60 mg/kg x 1 day, group E, day 13 p.i., Cp Mouse Efficacy 2
  RLU standardized by fecal weight: 774 RLU
60 mg/kg x 1 day, group E, day 15 p.i., Cp Mouse Efficacy 2
  RLU standardized by fecal weight: 399 RLU
60 mg/kg x 1 day, group E, day 17 p.i., Cp Mouse Efficacy 2
  RLU standardized by fecal weight: 726 RLU
60 mg/kg x 1 day, group E, day 20 p.i., Cp Mouse Efficacy 2
  RLU standardized by fecal weight: 525 RLU
